Columns and labels:
[1] = tested on: nucleoside diphosphate kinase; assay: Michaelis constant Km of uridine triphosphate synthesis using; format: biochemical, rat; conditions: uridine diphosphate as substrate, adenosine triphosphate as phosphate donor, 30° C., Hanes-Woolf plot
Protocol: The Michaelis constant Km can be determined through determination of the dependence of the initial enzyme reaction velocity on the substrate concentration in accordance with the method reported by Agarwal et al. (described in Methods of Enzymology, 1978, Vol. 51, pp. 483-491). (D4-1) in a purified form is used for the measurement of the Michaelis constant Km. The inhibitory concentration IC50 is determined by the method described above. […]
(D4-1-2) obtained in Preparation 8 was dissolved in 890 μL of aqueous solution 7 (50 mM phosphate buffer (pH of 7.5, 25° C.) containing 5 mM magnesium chloride and 100 mM adenosine triphosphate (available from Sigma-Aldrich Corporation)) in a 1.5 mL-tube. […] The supernatant (80 μL) was analyzed by HPLC, and the peak areas of uridine triphosphate were recorded.
Solutions were prepared by changing the molar concentration of sodium uridine diphosphate in substrate solution [2-1] to 5 mM (substrate solution [2-2]), 2 mM (substrate solution [2-3]), 1 mM (substrate solution [2-4]), and 0.3 mM (substrate solution [2-5]). […] The peak areas of uridine triphosphate were recorded for enzyme reaction solutions (IV-2-2) to (IV-2-5) in a similar manner for enzyme reaction solution (IV-2-1). […]

arginine kinase = assay: Michaelis constant Km of uridine triphosphate synthesis using arginine kinase; format: biochemical, Toxoplasma gondii; conditions: uridine diphosphate as substrate, ω-phosphono-L-arginine as phosphate donor
Protocol: Arginine kinase aqueous solution (D4-1-3) was obtained in a similar manner as in Preparation 1, except that a “gene encoding the amino acid sequence of SEQ ID NO: 9 derived from Toxoplasma gondii” was used in place of the “gene encoding the amino acid sequence of SEQ ID NO: 1 derived from Streptococcus equisimilis”.
The tube was allowed to stand at 30° C. for 3 minutes in a constant temperature water bath. To the tube was added 100 μL of temperature-adjusted (30° C.) substrate solution [2-1] (a solution obtained by dissolving sodium uridine diphosphate to a concentration of 10 mM in buffer solution B). Thereby, enzyme reaction solution (IV-2-1) was obtained. A portion (100 μL) of (IV-2-1) was extracted immediately after preparation and at 1-minute intervals. The extracted portions were heated at 100° C. for 2 minutes to stop the enzyme reaction, and centrifuged using a centrifuge (4° C., 12,000×g, 10 min) to precipitate impurities. The supernatant (80 μL) was analyzed by HPLC, and the peak areas of uridine triphosphate were recorded.
A Hanes-Woolf plot was constructed using the calculated initial enzyme reaction velocity v, with the horizontal axis (x-axis) plotting each substrate concentration [S], and the vertical axis (y-axis) plotting the […] of the initial enzyme reaction velocity at each substrate concentration. […]

For `O=c1ccn([C@@H]2O[C@H](COP(=O)(O)OP(=O)(O)O)[C@@H](O)[C@H]2O)c(=O)[nH]1` [uridine diphosphate], the Km [1] was 250 µM and the Km (arginine kinase) was 710 µM.

Source: patent US9670514B2, “Method for producing polysaccharide” (SANYO CHEMICAL INDUSTRIES, LTD., priority 2011, dated 2017)
